Measured values published in patent US20210113501A1, “METHOD OF ADMINISTERING BETA-HYDROXY-BETA-METHYLBUTYRATE (HMB)” (Metabolic Technologies, Inc., priority 2009, published 2021).

Assay: Study 1 blood chemistry
Format: in vivo, human
Details: for Gamma-glutamyl: in U/L (unit assumed); for A:G Ratio % Change / Alanine Aminotransferase % Change / Albumin % Change / Alkaline Phosphatase % Change / Aspartate Aminotransferase % Change / Blood Urea Nitrogen % Change / CO2 % Change / Chloride % Change / Cholesterol Ratio % Change / Creatinine % Change / Direct Bilirubin % Change / Gamma-glutamyl % Change / Globulin % Change / Glucose % Change / HDL % Change / Iron % Change / Iron Binding Capacity % Change / Iron Saturation % Change / LDL % Change / Lactate Dehydrogenase % Change / Phosphorus % Change / Potassium % Change / Protein % Change / Sodium % Change / Total Bilirubin % Change / Total Cholesterol % Change / Triglycerides % Change / UIBC % Change / Uric Acid % Change: Before to After
Description: Study 1 design. For study 1 the subjects reported to the laboratory in the morning following an overnight fast. Before ingestion of one of the supplemental treatments, a flexible sterile polyethylene catheter was inserted into a forearm vein using sterile procedures and a pre-ingestion blood sample was drawn. Subsequent blood samples were taken at 0, 2, 5, 10, 15, 25, 35, 45, 60, 90, 120 and 180 min after ingestion of the treatment. Plasma was separated and samples were stored frozen at −70° C. for analysis of HMB concentration. In addition, a portion of the pre-ingestion and 180 minute blood samples were used for measurements (LabCorp, Kansas City, Mo.) of glucose, uric acid, blood urea nitrogen (BUN), creatinine, sodium, potassium, chloride, carbon dioxide, phosphorous, protein, albumin, globulin, albumin:globulin ratio, total bilirubin, direct bilirubin, alkaline phosphatase, lactate dehydrogenase, aspartate aminotransferase (AST), alanine aminotransferase (ALT), gamma-glutamyl transpeptidase (GGT), iron binding capacity (TIBC), unsaturated iron binding capacity (UIBC), iron, iron saturation, total cholesterol, triglycerides, high density lipoprotein (HDL), low density lipoprotein (LDL), and cholesterol ratio. A complete blood count (CBC) was also performed before and after the 180 min treatment period. Subjects also completed a brief questionnaire to report any physical symptoms (such as nausea, headache, etc) they may have experienced during the experiment.
The data were analyzed using a crossover design with Proc GLM in SAS. (45) For the timed sampling of plasma HMB a repeated measures polynomial model was used. The model included subject, order, and treatment main effects and time by treatment interaction where appropriate. For other parameters Proc GLM was also used with subject, order, and treatment main effects and the p values are reported for the treatment main effect. Statistical significance was determined for p<0.05 and a trend was determined for 0.05<p<0.10.

[1] = After (180 min), listed as Free Acid Gel Sublingual
[2] = listed as Free Acid Gel Sublingual
[3] = Before, listed as Free Acid Gel Sublingual

## CC(C)(O)CC(=O)[O-].CC(C)(O)CC(=O)[O-].[Ca+2] [CaHMB, calcium β-hydroxy-β-methylbutryate, reference compound]
After (180 min)
  A:G Ratio: 1.7 ± 0.1
  Alanine Aminotransferase: 15.6 ± 2.0 IU/L
  Albumin: 4.1 ± 0.1 g/dL
  Alkaline Phosphatase: 68.4 ± 8.4 IU/L
  Aspartate Aminotransferase: 22.4 ± 1.8 IU/L
  Blood Urea Nitrogen: 11.3 ± 0.9 mg/dL
  CO2: 24.8 ± 0.5 mEq/L
  Chloride: 103.1 ± 0.7 mEq/L
  Cholesterol Ratio: 3.0 ± 0.1
  Creatinine: 0.9 ± 0.1 mg/dL
  Direct Bilirubin: 0.1 ± 0.01 mg/dL
  Globulin: 2.5 ± 0.2 g/dL
  Glucose: 76.4 ± 3.2 mg/dL
  HDL: 53.1 ± 3.8 mg/dL
  Iron: 93.0 ± 16.8 µg/dL
  Iron Binding Capacity: 342.8 ± 35.9 µg/dL
  Iron Saturation: 31.1 ± 8.9%
  LDL: 86.5 ± 5.7 mg/dL
  Lactate Dehydrogenase: 165.6 ± 10.7 IU/L
  Phosphorus: 3.5 ± 0.3 mg/dL
  Potassium: 4.7 ± 0.2 mEq/L
  Protein: 6.5 ± 0.3 g/dL
  Sodium: 139.4 ± 0.8 mEq/L
  Total Bilirubin: 0.5 ± 0.08 mg/dL
  Total Cholesterol: 153.9 ± 9.7 mg/dL
  Triglycerides: 71.6 ± 11.2 mg/dL
  UIBC: 249.8 ± 47.7 µg/dL
  Uric Acid: 4.5 ± 0.4 mg/dL
  Gamma-glutamyl: 13.1 ± 0.9
Before
  A:G Ratio: 1.8 ± 0.1
  Alanine Aminotransferase: 14.1 ± 1.5 IU/L
  Albumin: 4.0 ± 0.1 g/dL
  Alkaline Phosphatase: 66.5 ± 6.5 IU/L
  Aspartate Aminotransferase: 21.4 ± 1.5 IU/L
  Blood Urea Nitrogen: 12.1 ± 1.0 mg/dL
  CO2: 23.4 ± 0.6 mEq/L
  Chloride: 103.3 ± 0.6 mEq/L
  Cholesterol Ratio: 3.0 ± 0.1
  Creatinine: 0.9 ± 0.1 mg/dL
  Direct Bilirubin: 0.1 ± 0.02 mg/dL
  Globulin: 2.3 ± 0.2 g/dL
  Glucose: 72.6 ± 1.6 mg/dL
  HDL: 51.3 ± 3.2 mg/dL
  Iron: 83.3 ± 16.7 µg/dL
  Iron Binding Capacity: 330.4 ± 32.9 µg/dL
  Iron Saturation: 29.9 ± 9.5%
  LDL: 86.1 ± 5.3 mg/dL
  Lactate Dehydrogenase: 160.9 ± 9.5 IU/L
  Phosphorus: 3.9 ± 0.2 mg/dL
  Potassium: 4.1 ± 0.1 mEq/L
  Protein: 6.3 ± 0.2 g/dL
  Sodium: 139.1 ± 0.5 mEq/L
  Total Bilirubin: 0.5 ± 0.07 mg/dL
  Total Cholesterol: 153.4 ± 9.1 mg/dL
  Triglycerides: 80.4 ± 11.6 mg/dL
  UIBC: 247.1 ± 45.0 µg/dL
  Uric Acid: 4.5 ± 0.3 mg/dL
  Gamma-glutamyl: 13.8 ± 0.9
  A:G Ratio % Change: −8.9%
  Alanine Aminotransferase % Change: 10.6%
  Albumin % Change: 0.3%
  Alkaline Phosphatase % Change: 2.8%
  Aspartate Aminotransferase % Change: 4.7%
  Blood Urea Nitrogen % Change: −7.2%
  CO2 % Change: 5.9%
  Chloride % Change: −0.1%
  Cholesterol Ratio % Change: −2.5%
  Creatinine % Change: 0.5%
  Direct Bilirubin % Change: 5.8%
  Gamma-glutamyl % Change: −4.5%
  Globulin % Change: 8.2%
  Glucose % Change: 5.2%
  HDL % Change: 3.7%
  Iron % Change: 11.7%
  Iron Binding Capacity % Change: 3.7%
  Iron Saturation % Change: 4.2%
  LDL % Change: 0.4%
  Lactate Dehydrogenase % Change: 3.0%
  Phosphorus % Change: −10.8%
  Potassium % Change: 13.4%
  Protein % Change: 3.2%
  Sodium % Change: 0.2%
  Total Bilirubin % Change: 7.9%
  Total Cholesterol % Change: 0.3%
  Triglycerides % Change: −10.9%
  UIBC % Change: 1.1%
  Uric Acid % Change: −1.4%

## CC(C)(O)CC(=O)O [HMB-Acid Gel Sublingual, 3-hydroxy-3-methylbutyric acid]
After (180 min)
  Albumin: 4.1 ± 0.2 g/dL
  Direct Bilirubin: 0.1 ± 0.01 mg/dL
  Iron Saturation: 30.9 ± 8.5%
[1]
  A:G Ratio: 1.8 ± 0.1
  Alanine Aminotransferase: 17.3 ± 2.7 IU/L
  Alkaline Phosphatase: 66.8 ± 6.8 IU/L
  Aspartate Aminotransferase: 28.3 ± 8.2 IU/L
  Blood Urea Nitrogen: 12.9 ± 0.8 mg/dL
  CO2: 24.3 ± 0.6 mEq/L
  Chloride: 102.4 ± 1.1 mEq/L
  Cholesterol Ratio: 3.3 ± 0.2
  Creatinine: 1.0 ± 0.04 mg/dL
  Globulin: 2.3 ± 0.1 g/dL
  Glucose: 77.4 ± 2.5 mg/dL
  HDL: 49.3 ± 4.3 mg/dL
  Iron: 94.6 ± 16.6 µg/dL
  Iron Binding Capacity: 339.5 ± 30.8 µg/dL
  LDL: 89.4 ± 4.9 mg/dL
  Lactate Dehydrogenase: 167.3 ± 12.2 IU/L
  Phosphorus: 3.5 ± 0.2 mg/dL
  Potassium: 4.5 ± 0.1 mEq/L
  Protein: 6.4 ± 0.2 g/dL
  Sodium: 137.8 ± 0.9 mEq/L
  Total Bilirubin: 0.5 ± 0.05 mg/dL
  Total Cholesterol: 155.5 ± 5.8 mg/dL
  Triglycerides: 83.8 ± 15.8 mg/dL
  UIBC: 244.9 ± 39.5 µg/dL
  Uric Acid: 4.0 ± 0.5 mg/dL
  Gamma-glutamyl: 13.4 ± 1.2
Before
  A:G Ratio: 1.9 ± 0.1
  Creatinine: 1.0 ± 0.1 mg/dL
  Direct Bilirubin: 0.1 ± 0.01 mg/dL
  Total Bilirubin: 0.4 ± 0.05 mg/dL
[2]
  A:G Ratio % Change: −2.0%
  Alanine Aminotransferase % Change: −0.7%
  Albumin % Change: 1.5%
  Alkaline Phosphatase % Change: 1.1%
  Aspartate Aminotransferase % Change: 0.9%
  Blood Urea Nitrogen % Change: −10.4%
  CO2 % Change: 1.0%
  Chloride % Change: −0.5%
  Cholesterol Ratio % Change: −0.4%
  Creatinine % Change: −1.5%
  Direct Bilirubin % Change: 8.6%
  Gamma-glutamyl % Change: 0.9%
  Globulin % Change: 1.6%
  Glucose % Change: 4.4%
  HDL % Change: 1.3%
  Iron % Change: 13.7%
  Iron Binding Capacity % Change: 3.5%
  Iron Saturation % Change: 6.0%
  LDL % Change: 2.1%
  Lactate Dehydrogenase % Change: 1.5%
  Phosphorus % Change: −13.2%
  Potassium % Change: 10.6%
  Protein % Change: 1.6%
  Sodium % Change: −1.1%
  Total Bilirubin % Change: 22.6%
  Total Cholesterol % Change: 0.7%
  Triglycerides % Change: −8.7%
  UIBC % Change: 0.1%
  Uric Acid % Change: −2.2%
[3]
  Alanine Aminotransferase: 17.4 ± 2.7 IU/L
  Albumin: 4.1 ± 0.1 g/dL
  Alkaline Phosphatase: 66.0 ± 6.3 IU/L
  Aspartate Aminotransferase: 28.0 ± 7.9 IU/L
  Blood Urea Nitrogen: 14.4 ± 0.8 mg/dL
  CO2: 24.0 ± 0.5 mEq/L
  Chloride: 102.9 ± 0.6 mEq/L
  Cholesterol Ratio: 3.3 ± 0.2
  Globulin: 2.3 ± 0.2 g/dL
  Glucose: 74.1 ± 1.7 mg/dL
  HDL: 48.6 ± 4.6 mg/dL
  Iron: 83.3 ± 16.4 µg/dL
  Iron Binding Capacity: 328.0 ± 32.8 µg/dL
  Iron Saturation: 29.1 ± 9.0%
  LDL: 87.5 ± 5.7 mg/dL
  Lactate Dehydrogenase: 164.8 ± 12.5 IU/L
  Phosphorus: 4.1 ± 0.05 mg/dL
  Potassium: 4.0 ± 0.03 mEq/L
  Protein: 6.3 ± 0.2 g/dL
  Sodium: 139.3 ± 0.8 mEq/L
  Total Cholesterol: 154.4 ± 6.9 mg/dL
  Triglycerides: 91.8 ± 16.1 mg/dL
  UIBC: 244.8 ± 42.3 µg/dL
  Uric Acid: 4.0 ± 0.4 mg/dL
  Gamma-glutamyl: 13.3 ± 1.2
